Measured values from US9546172B2, “Pyrazolo[3,4-d]pyrimidine and pyrazolo[2,3-d]pyrimidine compounds as kinase inhibitors” (Pharmacyclics LLC, priority 2011, dated 2017).

Assays:
Type in all cases: biochemical
Btk = target: T1, Btk (Homo sapiens, UniProt Q06187); test: Btk in vitro inhibitory activity (one of Methods A, B, C); conditions: determined in one of three in vitro assays (Examples 125-127)
T1 construct: purified from insect cells as a full-length construct containing a N-terminal 6×-His tag; 6xHis (N); host or cells: insect cells (baculovirus Sf21 in Method B)
Procedure: The Btk IC50s of compounds disclosed herein was determined in one of the three in vitro assays described in Examples 125-127.
(§1) Btk kinase activity was determined using a time-resolved fluorescence resonance energy transfer (TR-FRET) methodology. Measurements were performed in a reaction volume of 50 μL using 96-well assay plates. […] The reaction was quenched by the addition of 1.2 equivalents of EDTA (relative to divalent cation) in 25 μL of 1× Lance buffer (Perkin-Elmer). Streptavidin-APC (Perkin-Elmer) and Eu-labeled p-Tyr100 antibody (Perkin-Elmer) in 1× Lance buffer were added in a 25 μL volume to give final concentrations of 100 nM and 2.5 nM, respectively, and the mixture was allowed to incubate for one hour. The TR-FRET signal was measured on a multimode plate reader with an excitation wavelength (λEx) of 330 nm and detection wavelengths (λEm) of 615 and 665 nm. Activity was determined by the ratio of the fluorescence at 665 nm to that at 615 nm. For each compound, enzyme activity was measured at various concentrations of compound. Negative control reactions were performed in the absence of inhibitor in replicates of six, and two no-enzyme controls were used to determine baseline fluorescence levels Inhibition constants, Ki(app), were obtained using the program BatchKi (Kuzmic et al. (2000), Anal. Biochem. 286:45-50). IC50s were obtained according to the equation: IC50={Ki(app)/(1+[ATP]/Km^ATP)}+[E]total/2; For all kinases, [ATP]=Km^ATP, [Btk]total=0.5 nM and [Lck]total=6 nM.
Kinase activity is measured in vitro using electrophoretic mobility shift assay. The kinase reactions are assembled in a total volume of 25 μL in 384 well plates. […] The reaction is incubated for one hour and is quenched by the addition of 45 μL of termination buffer (100 mM HEPES, pH7.5, 0.01% Triton X-100, 30 mM EDTA). The terminated reactions are analyzed using 12 channel LabChip® 3000 microfluidic detection instrument (Caliper Life Sciences). The enzymatic phosphorylation of the peptide results in a change in net charge, enabling electrophoretic separation of product from substrate peptide. As substrate and product peptides are separated, two peaks of fluorescence are observed. Change in the relative fluorescence intensity of the substrate and product peaks is the parameter measured, reflecting enzyme activity. In the presence of an inhibitor, the ratio between product and substrate is altered: the signal of the product decreases, while the signal of the substrate increases.
Activity in each sample is determined as the product to sum ratio (PSR): P/(S+P), where P is the peak height of the product peptide and S is the peak height of the substrate peptide. For each compound, enzyme activity is measured at various concentrations (12 concentrations of compound spaced by 3× dilution intervals). Negative control samples (0%-inhibition in the absence of inhibitor) and positive control samples (100%-inhibition, in the presence of 20 mM EDTA) are assembled in replicates of four and are used to calculate %-inhibition values for each inhibitor at each concentration. Percent inhibition (Pinh) is determined using following equation: Pinh=(PSR0%−PSRinh)/(PSR0%−PSR100%)*100, where PSRinh is the product sum ratio in the presence of inhibitor, PSR0% is the average product sum ration in the absence of inhibitor and PSR100% is the average product sum ratio in 100%-inhibition control samples;
The IC50 values of inhibitors are determined by 4 parameter sigmoidal dose-response model fitting of the inhibition curves (Pinh versus inhibitor concentration) using XLfit 4 software.
Human Btk kinase (Genbank accession # NP_000052) was purified from insect cells as a full-length construct containing a N-terminal 6×-His tag. Btk kinase activity was determined using a radiometric filter binding assay. Measurements are performed in a low reaction volume 384-well assay plates. […]

Tec = target: T2, Tec (Homo sapiens, UniProt P42680); test: Tec kinase inhibition
T2 sequence (P42680 1-631): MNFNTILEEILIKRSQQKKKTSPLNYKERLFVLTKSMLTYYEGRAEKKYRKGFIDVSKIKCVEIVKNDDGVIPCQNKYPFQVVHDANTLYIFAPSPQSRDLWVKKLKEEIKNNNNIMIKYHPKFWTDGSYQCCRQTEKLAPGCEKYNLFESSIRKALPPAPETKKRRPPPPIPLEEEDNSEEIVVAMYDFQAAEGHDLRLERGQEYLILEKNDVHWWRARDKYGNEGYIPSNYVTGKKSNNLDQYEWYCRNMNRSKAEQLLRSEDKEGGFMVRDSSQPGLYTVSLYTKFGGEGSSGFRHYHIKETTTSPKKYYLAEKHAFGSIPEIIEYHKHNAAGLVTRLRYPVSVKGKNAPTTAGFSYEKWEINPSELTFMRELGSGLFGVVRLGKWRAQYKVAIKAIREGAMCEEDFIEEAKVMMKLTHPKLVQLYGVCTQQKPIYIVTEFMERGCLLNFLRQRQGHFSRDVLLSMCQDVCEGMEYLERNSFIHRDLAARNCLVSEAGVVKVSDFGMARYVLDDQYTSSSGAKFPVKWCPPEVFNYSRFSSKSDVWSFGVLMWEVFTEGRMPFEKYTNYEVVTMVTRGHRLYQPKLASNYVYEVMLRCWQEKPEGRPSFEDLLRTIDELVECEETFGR
Procedure: as §1

EGFR = EGFR (Homo sapiens, UniProt P00533); test: EGFR kinase inhibition
Lck = Lck (Homo sapiens, UniProt P06239); test: Lck kinase inhibition
Procedure: as §1

C-src = C-src (Homo sapiens, UniProt P12931); test: C-src kinase inhibition
Procedure: as §1

Lyn = Lyn (Homo sapiens, UniProt P07948); test: Lyn kinase inhibition
RET = RET (Homo sapiens, UniProt P07949); test: RET kinase inhibition
BLK = BLK (Homo sapiens, UniProt P51451); test: BLK kinase inhibition
Procedure: as §1

BMX = target: T3, BMX (Homo sapiens, UniProt P51813); test: BMX kinase inhibition
T3 sequence (P51813 1-675): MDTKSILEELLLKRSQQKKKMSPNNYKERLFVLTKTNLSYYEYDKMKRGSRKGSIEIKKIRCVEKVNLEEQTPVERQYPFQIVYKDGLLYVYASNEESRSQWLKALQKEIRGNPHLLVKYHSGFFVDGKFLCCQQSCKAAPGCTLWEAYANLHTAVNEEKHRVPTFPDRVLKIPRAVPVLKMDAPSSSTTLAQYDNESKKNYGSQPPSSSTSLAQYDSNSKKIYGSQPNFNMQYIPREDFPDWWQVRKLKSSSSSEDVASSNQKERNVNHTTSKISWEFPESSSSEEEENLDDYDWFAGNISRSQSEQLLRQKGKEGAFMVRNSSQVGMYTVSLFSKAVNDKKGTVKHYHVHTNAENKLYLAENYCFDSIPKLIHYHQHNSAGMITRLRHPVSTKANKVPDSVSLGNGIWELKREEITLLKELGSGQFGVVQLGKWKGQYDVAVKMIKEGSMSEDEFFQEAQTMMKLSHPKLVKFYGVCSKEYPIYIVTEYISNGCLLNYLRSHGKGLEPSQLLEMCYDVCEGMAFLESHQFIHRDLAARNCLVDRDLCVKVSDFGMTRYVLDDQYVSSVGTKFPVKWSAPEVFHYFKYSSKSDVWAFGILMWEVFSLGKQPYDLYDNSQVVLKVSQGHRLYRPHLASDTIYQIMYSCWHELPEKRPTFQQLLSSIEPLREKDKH

CSK = CSK (Homo sapiens, UniProt P41240); test: CSK kinase inhibition

Chain of RET (P07949 29-1114): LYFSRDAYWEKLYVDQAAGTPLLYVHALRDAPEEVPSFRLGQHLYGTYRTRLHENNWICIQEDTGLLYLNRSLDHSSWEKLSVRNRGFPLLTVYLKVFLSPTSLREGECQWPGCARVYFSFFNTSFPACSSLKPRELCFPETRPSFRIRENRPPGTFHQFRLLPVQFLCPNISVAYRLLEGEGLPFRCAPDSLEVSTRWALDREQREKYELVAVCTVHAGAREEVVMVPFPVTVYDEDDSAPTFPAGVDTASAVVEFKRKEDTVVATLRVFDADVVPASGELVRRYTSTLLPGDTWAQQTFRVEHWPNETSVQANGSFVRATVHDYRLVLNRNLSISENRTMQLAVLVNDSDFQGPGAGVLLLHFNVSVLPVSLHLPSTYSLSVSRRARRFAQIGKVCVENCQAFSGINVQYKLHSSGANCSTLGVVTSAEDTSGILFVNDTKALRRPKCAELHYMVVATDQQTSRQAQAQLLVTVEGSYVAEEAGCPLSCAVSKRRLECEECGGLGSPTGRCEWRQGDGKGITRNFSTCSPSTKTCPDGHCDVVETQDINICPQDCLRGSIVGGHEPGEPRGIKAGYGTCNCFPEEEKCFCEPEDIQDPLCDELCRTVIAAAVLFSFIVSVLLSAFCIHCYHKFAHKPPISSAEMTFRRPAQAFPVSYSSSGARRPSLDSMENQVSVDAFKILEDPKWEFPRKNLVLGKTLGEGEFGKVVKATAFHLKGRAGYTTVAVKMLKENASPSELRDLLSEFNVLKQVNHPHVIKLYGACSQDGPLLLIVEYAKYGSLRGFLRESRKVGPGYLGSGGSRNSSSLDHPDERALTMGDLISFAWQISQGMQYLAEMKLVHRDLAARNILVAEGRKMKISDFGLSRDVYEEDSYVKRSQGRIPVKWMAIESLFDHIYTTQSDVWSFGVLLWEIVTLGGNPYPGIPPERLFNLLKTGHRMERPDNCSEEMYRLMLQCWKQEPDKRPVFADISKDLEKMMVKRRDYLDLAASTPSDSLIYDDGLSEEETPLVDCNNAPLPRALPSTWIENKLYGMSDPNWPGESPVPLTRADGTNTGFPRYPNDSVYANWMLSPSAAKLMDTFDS
Chain of BLK (P51451 whole entry): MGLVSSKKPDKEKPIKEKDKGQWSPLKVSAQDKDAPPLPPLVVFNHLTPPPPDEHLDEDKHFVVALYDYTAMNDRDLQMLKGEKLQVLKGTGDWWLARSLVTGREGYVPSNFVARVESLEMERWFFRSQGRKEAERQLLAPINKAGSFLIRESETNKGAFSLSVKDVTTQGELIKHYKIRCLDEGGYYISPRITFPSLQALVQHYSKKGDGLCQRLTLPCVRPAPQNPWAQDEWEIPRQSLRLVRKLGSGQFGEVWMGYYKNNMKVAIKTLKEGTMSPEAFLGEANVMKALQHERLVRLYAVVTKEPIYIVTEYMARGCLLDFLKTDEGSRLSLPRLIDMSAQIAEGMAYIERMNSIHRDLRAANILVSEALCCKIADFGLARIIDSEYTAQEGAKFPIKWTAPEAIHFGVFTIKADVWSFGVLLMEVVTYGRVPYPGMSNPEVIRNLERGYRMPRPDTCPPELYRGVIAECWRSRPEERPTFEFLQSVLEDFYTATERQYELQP
Chain of Lyn (P07948 whole entry): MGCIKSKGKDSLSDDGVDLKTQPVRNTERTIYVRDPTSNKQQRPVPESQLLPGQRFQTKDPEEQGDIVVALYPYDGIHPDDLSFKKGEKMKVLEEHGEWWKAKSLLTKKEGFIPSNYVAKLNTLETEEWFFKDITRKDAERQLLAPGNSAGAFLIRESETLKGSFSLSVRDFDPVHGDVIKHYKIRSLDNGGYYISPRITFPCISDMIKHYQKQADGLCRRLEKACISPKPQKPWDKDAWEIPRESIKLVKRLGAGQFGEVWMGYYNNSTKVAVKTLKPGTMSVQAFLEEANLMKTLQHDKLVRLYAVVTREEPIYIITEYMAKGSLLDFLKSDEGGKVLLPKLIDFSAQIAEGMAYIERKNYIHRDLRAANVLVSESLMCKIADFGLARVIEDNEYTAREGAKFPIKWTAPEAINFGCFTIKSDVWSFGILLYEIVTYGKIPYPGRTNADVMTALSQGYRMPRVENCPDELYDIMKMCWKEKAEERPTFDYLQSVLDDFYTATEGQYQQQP
Chain of EGFR (P00533 25-1210): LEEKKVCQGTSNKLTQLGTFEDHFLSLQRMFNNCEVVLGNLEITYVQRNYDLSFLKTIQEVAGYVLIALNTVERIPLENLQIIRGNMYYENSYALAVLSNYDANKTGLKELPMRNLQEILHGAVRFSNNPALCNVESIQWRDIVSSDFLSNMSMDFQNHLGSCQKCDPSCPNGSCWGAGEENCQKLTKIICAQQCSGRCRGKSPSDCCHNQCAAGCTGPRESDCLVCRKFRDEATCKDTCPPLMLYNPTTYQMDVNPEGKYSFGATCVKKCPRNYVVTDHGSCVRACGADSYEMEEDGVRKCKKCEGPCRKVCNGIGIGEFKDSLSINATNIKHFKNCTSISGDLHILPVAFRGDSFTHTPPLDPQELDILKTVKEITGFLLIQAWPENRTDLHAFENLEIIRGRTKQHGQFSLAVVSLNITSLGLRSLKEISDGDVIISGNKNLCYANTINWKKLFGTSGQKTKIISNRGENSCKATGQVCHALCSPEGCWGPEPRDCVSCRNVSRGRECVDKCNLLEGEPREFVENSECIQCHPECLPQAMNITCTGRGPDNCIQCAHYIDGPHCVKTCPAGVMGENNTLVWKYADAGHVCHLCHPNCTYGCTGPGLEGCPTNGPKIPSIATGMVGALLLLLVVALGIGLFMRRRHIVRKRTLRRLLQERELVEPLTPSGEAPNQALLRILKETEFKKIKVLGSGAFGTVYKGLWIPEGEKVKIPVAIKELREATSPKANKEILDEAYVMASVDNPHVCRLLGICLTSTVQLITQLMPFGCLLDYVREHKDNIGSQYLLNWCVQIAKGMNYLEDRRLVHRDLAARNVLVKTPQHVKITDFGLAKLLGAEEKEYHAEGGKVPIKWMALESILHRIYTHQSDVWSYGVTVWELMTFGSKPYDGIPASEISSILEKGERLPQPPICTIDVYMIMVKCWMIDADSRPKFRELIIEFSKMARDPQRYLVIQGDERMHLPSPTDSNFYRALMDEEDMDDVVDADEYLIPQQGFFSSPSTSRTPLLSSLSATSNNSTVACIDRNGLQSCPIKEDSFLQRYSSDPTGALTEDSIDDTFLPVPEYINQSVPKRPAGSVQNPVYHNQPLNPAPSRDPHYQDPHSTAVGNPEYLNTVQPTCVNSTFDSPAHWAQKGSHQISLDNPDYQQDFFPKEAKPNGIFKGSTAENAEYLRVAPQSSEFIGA
Chain of Lck (P06239 whole entry): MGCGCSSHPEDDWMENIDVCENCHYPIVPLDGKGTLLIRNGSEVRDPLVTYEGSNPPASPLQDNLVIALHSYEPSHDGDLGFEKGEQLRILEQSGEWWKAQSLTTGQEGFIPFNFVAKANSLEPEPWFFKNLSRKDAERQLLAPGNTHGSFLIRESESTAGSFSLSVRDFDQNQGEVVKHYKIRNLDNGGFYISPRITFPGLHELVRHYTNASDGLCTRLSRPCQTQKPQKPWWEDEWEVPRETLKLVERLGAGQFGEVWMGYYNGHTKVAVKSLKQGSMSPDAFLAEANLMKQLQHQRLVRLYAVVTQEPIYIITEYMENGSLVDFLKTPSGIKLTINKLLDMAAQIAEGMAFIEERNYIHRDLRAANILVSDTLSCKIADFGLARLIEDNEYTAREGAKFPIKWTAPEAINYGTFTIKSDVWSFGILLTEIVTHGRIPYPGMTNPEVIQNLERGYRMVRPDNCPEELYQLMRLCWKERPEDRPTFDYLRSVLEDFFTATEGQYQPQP
T1 sequence (Q06187 whole entry): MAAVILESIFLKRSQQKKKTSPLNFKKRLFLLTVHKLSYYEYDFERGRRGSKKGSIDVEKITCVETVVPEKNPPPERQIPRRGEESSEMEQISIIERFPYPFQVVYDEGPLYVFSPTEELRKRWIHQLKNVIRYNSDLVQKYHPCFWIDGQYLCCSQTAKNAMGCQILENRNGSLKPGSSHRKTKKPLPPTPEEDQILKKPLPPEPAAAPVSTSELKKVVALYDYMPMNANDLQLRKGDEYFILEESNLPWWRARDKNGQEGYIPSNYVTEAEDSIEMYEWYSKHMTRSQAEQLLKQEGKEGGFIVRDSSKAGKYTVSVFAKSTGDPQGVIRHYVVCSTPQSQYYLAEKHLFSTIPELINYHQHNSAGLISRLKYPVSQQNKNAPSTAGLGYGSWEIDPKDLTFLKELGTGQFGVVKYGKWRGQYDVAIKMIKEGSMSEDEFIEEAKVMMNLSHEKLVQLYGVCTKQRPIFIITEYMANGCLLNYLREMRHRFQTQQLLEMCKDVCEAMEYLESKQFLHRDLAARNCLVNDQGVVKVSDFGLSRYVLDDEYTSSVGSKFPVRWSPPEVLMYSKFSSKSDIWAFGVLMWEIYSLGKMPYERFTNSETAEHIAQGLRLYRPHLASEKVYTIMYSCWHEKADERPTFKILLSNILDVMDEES
Chain of C-src (P12931 whole entry): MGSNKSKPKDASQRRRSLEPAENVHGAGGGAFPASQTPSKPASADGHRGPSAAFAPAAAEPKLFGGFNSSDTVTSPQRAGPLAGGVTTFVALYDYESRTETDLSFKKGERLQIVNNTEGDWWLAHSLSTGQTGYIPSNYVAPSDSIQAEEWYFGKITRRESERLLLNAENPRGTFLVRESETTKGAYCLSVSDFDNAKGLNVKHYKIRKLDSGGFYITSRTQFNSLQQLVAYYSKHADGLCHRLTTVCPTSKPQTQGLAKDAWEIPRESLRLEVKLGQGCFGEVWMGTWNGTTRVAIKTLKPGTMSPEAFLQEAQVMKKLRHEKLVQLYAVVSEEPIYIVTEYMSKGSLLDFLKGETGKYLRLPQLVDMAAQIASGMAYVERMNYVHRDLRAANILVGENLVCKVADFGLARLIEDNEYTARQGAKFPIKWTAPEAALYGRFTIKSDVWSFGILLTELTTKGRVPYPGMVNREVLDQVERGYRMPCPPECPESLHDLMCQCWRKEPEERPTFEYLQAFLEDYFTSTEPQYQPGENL

Compound | IC50 (Btk) [nM] | IC50 (Tec) [nM] | IC50 (EGFR) [nM] | IC50 (Lck) [nM] | IC50 (C-src) [nM] | IC50 (Lyn) [nM] | IC50 (RET) [nM] | IC50 (BLK) [nM] | IC50 (BMX) [nM] | IC50 (CSK) [nM]
CN(C)C/C=C/C(=O)N1CC[C@@H](n2nc(-c3ccc(Cl)cc3)c3c(N)ncnc32)C1 [Example 1, (E)-1-((R)-3-(4-amino-3-(4-chlorophenyl)-1H-pyrazolo[3,4-d]pyrimidin-1-yl)pyrrolidin-1-yl)-4-(dimethylamino)but-2-en-1-one] | < 100 | < 100 | 100 to 1000 | 100 to 1000 | < 100 | 100 to 1000 | 100 to 1000 | < 100 | < 100 | 100 to 1000
CN(C)C/C=C/C(=O)N1CC[C@@H](n2nc(-c3ccc(F)cc3)c3c(N)ncnc32)C1 [Example 3, (R,E)-1-(3-(4-amino-3-(4-fluorophenyl)-1H-pyrazolo[3,4-d]pyrimidin-1-yl)pyrrolidin-1-yl)-4-(dimethylamino)but-2-en-1-one] | < 100 | < 100 | > 1000 | > 1000 | 100 to 1000 | > 1000 | > 1000 | 100 to 1000 | < 100 | > 1000
Cc1ccc(-c2nn([C@@H]3CCN(C(=O)/C=C/CN(C)C)C3)c3ncnc(N)c23)cc1 [Example 4, (R,E)-1-(3-(4-amino-3-p-tolyl-1H-pyrazolo[3,4-d]pyrimidin-1-yl)pyrrolidin-1-yl)-4-(dimethylamino)but-2-en-1-one] | < 100 | < 100 | 100 to 1000 | 100 to 1000 | 100 to 1000 | 100 to 1000 | 100 to 1000 | < 100 | < 100 | > 1000
COc1ccc(-c2nn([C@@H]3CCN(C(=O)/C=C/CN(C)C)C3)c3ncnc(N)c23)cc1 [Example 5, (R,E)-1-(3-(4-amino-3-(4-methoxyphenyl)-1H-pyrazolo[3,4-d]pyrimidin-1-yl)pyrrolidin-1-yl)-4-(dimethylamino)but-2-en-1-one] | < 100 | < 100 | > 1000 | 100 to 1000 | 100 to 1000 | 100 to 1000 | 100 to 1000 | < 100 | < 100 | > 1000
